Test results from patent US12421232B2, “Kinase inhibitor compounds and compositions and methods of use” (ICAHN SCHOOL OF MEDICINE AT MOUNT SINAI, priority 2018, dated 2025).
Like-named read-outs stand apart in the source and are kept apart here. Marks after values point to notes of the source that are not given here.

Tests used:
Assay in all cases: KINOMEscan Assay (DiscoverX)
Assay type in all cases: binding
KIT(L576P) = target: T1, KIT(L576P) (Homo sapiens, UniProt P10721, L576P); conditions: read-out: % DMSO Ctrl
T1 construct: purchased DiscoverX
T1 sequence (P10721 26-976 L576P): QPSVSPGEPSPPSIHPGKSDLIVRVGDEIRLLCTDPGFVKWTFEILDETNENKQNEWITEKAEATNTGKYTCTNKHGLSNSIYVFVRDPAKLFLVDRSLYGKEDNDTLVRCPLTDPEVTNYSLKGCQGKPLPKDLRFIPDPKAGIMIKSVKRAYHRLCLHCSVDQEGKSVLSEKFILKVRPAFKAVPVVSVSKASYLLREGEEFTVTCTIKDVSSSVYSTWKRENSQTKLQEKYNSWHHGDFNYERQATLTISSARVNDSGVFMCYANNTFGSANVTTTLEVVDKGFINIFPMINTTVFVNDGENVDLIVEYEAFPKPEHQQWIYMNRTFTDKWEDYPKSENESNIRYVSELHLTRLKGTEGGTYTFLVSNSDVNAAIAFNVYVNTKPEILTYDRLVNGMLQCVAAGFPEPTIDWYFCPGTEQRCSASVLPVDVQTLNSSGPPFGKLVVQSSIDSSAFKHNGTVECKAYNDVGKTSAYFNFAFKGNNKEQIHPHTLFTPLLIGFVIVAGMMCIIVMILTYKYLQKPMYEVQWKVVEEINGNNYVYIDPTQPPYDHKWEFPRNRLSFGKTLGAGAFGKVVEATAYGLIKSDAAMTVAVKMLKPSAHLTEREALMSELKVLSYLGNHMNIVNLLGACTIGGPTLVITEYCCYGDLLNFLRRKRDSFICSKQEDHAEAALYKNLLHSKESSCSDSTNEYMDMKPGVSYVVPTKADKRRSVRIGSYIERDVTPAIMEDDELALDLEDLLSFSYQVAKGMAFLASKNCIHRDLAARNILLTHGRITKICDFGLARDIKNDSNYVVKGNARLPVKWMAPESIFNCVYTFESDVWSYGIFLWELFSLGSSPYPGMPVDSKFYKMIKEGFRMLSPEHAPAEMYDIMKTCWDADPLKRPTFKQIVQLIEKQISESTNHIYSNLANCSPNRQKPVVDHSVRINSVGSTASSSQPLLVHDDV

FLT3(ITD,D835V) = FLT3(ITD,D835V) mutant; 10 μM
EGFR(G719C) = target: T2, EGFR(G719C) (Homo sapiens, UniProt P00533, G719C); conditions: read-out: % DMSO Ctrl
T2 construct: purchased DiscoverX

FLT3(D835V) = target: T3, FLT3(D835V) (Homo sapiens, UniProt P36888, D835V); conditions: read-out: % DMSO Ctrl
T3 construct: purchased DiscoverX
T3 sequence (P36888 27-993 D835V): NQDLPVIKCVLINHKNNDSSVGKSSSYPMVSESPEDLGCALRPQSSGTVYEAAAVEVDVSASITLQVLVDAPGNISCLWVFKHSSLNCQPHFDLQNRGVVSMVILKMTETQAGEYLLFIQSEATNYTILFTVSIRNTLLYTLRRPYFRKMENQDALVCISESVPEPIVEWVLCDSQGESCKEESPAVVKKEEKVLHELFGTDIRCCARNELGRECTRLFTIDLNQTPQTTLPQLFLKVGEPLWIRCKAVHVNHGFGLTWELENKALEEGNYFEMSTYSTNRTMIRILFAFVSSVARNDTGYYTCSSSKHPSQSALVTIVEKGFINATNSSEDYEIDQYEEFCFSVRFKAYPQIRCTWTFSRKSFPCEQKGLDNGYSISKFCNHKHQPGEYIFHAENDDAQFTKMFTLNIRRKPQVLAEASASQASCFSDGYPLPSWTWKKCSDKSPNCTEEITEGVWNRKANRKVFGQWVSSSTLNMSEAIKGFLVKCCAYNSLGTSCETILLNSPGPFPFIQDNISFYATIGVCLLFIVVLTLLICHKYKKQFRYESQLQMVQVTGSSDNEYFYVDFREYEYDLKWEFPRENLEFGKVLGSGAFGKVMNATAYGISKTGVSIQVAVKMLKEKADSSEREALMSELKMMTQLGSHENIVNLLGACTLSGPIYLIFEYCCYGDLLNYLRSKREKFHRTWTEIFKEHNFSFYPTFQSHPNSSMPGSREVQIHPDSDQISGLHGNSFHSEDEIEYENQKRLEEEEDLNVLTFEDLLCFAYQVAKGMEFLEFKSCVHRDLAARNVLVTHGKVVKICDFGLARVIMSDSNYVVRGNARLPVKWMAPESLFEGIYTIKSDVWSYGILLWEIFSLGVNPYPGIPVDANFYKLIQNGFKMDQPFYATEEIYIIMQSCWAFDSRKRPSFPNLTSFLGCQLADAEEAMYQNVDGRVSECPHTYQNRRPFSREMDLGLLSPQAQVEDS

FLT3(ITD) = FLT3(ITD) mutant; 10 μM
ROCK2 = target: T4, ROCK2 (Homo sapiens, UniProt O75116); conditions: read-out: % DMSO Ctrl
T4 construct: purchased DiscoverX
T4 sequence (O75116 whole entry): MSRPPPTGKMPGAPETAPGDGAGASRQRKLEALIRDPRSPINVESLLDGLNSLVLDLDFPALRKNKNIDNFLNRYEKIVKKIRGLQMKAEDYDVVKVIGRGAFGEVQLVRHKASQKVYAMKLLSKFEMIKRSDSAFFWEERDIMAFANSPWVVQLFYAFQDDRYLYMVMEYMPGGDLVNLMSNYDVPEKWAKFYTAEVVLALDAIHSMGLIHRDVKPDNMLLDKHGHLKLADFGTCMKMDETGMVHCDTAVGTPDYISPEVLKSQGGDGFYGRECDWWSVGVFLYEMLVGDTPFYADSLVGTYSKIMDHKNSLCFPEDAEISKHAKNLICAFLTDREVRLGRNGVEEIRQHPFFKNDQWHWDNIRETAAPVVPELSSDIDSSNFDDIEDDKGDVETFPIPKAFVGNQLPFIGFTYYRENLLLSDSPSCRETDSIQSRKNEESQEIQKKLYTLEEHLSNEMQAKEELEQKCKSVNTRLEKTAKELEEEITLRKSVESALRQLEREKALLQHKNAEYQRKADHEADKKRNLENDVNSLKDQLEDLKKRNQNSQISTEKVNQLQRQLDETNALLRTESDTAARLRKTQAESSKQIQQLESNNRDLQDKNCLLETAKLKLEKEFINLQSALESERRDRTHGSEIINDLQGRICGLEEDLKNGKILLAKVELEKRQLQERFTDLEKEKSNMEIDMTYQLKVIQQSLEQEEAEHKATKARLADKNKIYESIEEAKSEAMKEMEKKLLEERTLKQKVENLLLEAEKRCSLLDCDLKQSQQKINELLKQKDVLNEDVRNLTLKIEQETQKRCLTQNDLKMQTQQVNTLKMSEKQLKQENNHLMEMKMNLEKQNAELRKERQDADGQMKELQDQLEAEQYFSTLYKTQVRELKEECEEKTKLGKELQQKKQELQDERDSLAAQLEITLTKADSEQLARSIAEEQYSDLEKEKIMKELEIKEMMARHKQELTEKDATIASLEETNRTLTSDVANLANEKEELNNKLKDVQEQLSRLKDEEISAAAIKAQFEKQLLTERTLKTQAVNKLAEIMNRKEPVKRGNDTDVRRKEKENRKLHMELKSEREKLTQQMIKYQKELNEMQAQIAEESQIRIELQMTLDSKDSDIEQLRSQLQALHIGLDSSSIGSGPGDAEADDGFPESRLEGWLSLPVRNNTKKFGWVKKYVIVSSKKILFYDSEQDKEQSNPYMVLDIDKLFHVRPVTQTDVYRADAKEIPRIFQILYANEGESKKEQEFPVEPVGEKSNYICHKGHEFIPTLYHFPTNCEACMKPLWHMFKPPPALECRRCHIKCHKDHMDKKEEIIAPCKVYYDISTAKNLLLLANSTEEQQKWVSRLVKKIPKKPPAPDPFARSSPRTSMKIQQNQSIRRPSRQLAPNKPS

PDGFRA = target: T5, PDGFRA (Homo sapiens, UniProt P16234); conditions: read-out: % DMSO Ctrl
T5 construct: purchased DiscoverX
T5 sequence (P16234 24-1089): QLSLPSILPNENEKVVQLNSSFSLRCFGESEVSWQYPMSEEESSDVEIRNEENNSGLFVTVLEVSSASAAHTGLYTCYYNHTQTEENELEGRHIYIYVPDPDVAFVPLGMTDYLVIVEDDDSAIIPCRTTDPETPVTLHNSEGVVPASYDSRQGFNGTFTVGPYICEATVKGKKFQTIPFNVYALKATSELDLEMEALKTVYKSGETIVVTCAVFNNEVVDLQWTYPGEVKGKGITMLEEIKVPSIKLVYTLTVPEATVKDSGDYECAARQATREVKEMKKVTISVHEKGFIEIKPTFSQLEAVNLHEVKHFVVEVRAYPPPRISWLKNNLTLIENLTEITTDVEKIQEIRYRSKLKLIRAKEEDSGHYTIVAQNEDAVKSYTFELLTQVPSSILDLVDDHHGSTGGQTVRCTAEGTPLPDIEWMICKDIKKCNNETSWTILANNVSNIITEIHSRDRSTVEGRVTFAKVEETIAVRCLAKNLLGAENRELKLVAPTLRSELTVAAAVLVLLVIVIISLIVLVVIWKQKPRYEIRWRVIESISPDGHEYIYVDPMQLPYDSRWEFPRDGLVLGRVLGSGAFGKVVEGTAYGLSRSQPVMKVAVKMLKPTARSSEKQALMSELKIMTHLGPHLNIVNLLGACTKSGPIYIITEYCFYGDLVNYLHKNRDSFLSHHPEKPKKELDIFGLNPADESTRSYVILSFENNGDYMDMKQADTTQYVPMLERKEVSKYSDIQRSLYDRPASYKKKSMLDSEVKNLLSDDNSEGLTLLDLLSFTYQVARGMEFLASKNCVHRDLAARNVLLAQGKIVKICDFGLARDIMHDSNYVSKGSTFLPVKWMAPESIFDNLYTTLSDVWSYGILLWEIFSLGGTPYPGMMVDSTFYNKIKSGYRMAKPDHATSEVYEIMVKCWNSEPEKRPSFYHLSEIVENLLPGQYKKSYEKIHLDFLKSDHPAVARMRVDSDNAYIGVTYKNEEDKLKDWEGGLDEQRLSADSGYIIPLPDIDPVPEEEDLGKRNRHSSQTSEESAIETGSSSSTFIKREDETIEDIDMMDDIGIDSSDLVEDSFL

CAMK2A = target: T6, CAMK2A (Homo sapiens, UniProt Q9UQM7); conditions: read-out: % DMSO Ctrl
T6 construct: purchased DiscoverX
T6 sequence (Q9UQM7 whole entry): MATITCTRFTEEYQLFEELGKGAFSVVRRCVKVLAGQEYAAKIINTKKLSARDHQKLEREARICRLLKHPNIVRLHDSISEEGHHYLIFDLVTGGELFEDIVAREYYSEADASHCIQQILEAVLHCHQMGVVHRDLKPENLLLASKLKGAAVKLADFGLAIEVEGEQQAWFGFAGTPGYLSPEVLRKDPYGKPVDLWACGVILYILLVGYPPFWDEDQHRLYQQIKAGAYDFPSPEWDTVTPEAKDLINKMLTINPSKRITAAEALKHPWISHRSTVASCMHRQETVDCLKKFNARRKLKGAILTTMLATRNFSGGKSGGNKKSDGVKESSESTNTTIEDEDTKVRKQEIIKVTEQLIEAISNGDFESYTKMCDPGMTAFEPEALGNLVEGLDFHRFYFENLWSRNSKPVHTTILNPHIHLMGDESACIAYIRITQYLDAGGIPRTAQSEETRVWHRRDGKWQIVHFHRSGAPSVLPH

HIPK3 = target: T7, HIPK3 (Homo sapiens, UniProt Q9H422); conditions: read-out: % DMSO Ctrl
T7 construct: purchased DiscoverX
T7 sequence (Q9H422 whole entry): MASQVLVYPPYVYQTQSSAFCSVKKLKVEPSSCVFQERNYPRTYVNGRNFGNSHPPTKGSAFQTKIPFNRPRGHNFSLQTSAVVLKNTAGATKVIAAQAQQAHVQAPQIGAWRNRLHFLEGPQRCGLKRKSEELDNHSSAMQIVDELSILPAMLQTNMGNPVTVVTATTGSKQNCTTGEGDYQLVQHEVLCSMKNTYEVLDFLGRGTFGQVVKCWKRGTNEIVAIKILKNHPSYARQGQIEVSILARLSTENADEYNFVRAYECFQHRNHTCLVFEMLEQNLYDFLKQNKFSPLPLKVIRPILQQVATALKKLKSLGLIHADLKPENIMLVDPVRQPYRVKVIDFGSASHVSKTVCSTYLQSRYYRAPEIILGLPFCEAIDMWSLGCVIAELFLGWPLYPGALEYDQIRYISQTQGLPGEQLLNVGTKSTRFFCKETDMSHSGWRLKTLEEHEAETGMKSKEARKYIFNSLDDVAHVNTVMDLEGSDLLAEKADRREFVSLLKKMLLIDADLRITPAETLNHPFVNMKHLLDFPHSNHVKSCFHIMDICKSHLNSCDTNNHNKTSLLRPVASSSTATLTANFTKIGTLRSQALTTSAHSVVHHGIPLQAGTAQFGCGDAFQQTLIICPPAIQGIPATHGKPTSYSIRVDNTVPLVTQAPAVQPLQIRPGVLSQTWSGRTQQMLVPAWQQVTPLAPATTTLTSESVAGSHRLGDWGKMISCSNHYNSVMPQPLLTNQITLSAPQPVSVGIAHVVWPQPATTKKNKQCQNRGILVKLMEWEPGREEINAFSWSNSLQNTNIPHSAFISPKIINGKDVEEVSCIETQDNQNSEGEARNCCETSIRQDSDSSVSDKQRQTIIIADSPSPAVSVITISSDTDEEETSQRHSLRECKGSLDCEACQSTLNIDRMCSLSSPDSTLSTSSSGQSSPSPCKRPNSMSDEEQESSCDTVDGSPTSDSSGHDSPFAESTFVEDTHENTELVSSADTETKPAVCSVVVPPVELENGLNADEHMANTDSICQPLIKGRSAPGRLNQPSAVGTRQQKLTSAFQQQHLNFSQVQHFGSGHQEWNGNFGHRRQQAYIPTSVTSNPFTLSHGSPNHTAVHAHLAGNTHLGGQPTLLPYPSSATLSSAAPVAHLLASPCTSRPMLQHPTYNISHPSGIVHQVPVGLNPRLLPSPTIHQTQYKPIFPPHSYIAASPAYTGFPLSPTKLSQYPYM

CDK7 = target: T8, CDK7 (Homo sapiens, UniProt P50613); conditions: read-out: % DMSO Ctrl
T8 construct: purchased DiscoverX

HASPIN = target: T9, HASPIN (Homo sapiens, UniProt Q8TF76); conditions: read-out: % DMSO Ctrl
T9 construct: purchased DiscoverX
T9 sequence (Q8TF76 1-798): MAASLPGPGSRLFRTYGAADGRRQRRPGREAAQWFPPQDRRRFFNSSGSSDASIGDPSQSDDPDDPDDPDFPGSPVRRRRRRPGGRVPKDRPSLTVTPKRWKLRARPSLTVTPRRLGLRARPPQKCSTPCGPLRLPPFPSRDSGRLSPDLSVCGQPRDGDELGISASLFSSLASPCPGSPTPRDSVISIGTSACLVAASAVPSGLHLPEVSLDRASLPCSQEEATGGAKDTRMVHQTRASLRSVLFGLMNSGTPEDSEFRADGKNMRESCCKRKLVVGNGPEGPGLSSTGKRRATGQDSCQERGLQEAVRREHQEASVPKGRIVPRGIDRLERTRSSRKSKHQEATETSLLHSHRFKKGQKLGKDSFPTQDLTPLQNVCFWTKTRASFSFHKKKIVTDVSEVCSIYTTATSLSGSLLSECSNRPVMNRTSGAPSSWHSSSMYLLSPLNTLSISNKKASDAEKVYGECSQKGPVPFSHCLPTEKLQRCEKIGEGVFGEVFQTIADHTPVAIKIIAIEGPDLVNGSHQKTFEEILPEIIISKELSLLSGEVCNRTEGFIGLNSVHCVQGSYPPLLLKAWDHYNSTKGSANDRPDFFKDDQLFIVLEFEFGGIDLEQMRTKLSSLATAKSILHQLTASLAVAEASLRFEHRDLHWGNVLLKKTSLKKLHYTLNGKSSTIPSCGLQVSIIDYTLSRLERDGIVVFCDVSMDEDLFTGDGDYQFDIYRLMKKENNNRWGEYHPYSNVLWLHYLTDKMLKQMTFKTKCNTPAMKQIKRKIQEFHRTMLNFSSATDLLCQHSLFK

Compound	remaining binding at 10 µM (KIT(L576P); KIT(L576P) mutant, 10 μM)	% DMSO Ctrl (FLT3(ITD,D835V))	remaining binding at 10 µM (EGFR(G719C); EGFR(G719C) mutant, 10 μM)	remaining binding at 10 µM (FLT3(D835V); FLT3(D835V) mutant, 10 μM)	% DMSO Ctrl (FLT3(ITD))	remaining binding at 10 µM (ROCK2; ROCK2, 10 μM)	remaining binding at 10 µM (PDGFRA; PDGFRA, 10 μM)	remaining binding at 10 µM (CAMK2A; CAMK2A, 10 μM)	remaining binding at 10 µM (KIT(L576P))	remaining binding at 10 µM (HIPK3)	remaining binding at 10 µM (EGFR(G719C))	remaining binding at 10 µM (FLT3(D835V))	remaining binding at 10 µM (CDK7)	remaining binding at 10 µM (ROCK2)	remaining binding at 10 µM (PDGFRA)	remaining binding at 10 µM (CAMK2A)	remaining binding at 10 µM (HASPIN)	remaining binding at 10 µM (HIPK3; HIPK3, 10 μM)	remaining binding at 10 µM (CDK7; CDK7, 10 μM)
COc1ccc2c(c1)[nH]c1c(C)nc(CO)cc12 [Compound 2-8, (1-Methyl-7-methoxy-9H-pyrido[3,4-b]indol-3-yl)methanol]	94%	37 % DMSO Ctrl	98%	42%	87 % DMSO Ctrl	88%	100%	53%											
COc1ccc2c3ccnc(C)c3n(CCCc3noc(N)n3)c2c1 [Compound 20-13, 3-(3-(7-Methoxy-1-methyl-β-carbolin-9-yl)propyl)-5-amino-1,2,4-oxadiazole]		11 ^c % DMSO Ctrl			72 % DMSO Ctrl				100%	6.2%	93%	2.6%	51%	86%	83%	72%	0.35%		
C#CCn1c2cc(OC)ccc2c2ccnc(C)c21 [Compound 20-23a, 3-(7-Methoxy-1-methyl-β-carbolin-9-yl)-propan-1-yne]		11 ^c % DMSO Ctrl		2.5%	61 % DMSO Ctrl				74%		92%			16%	100%	13%	1.7%	4.5%	0.8%
COc1ccc2c(c1)[nH]c1c(C)nccc12 [Harmine, reference compound]										9.4%		25%	21%				2%		
